Measured values published in PMC6895912 (Cancers, 2019).
Several values for one entry are separate records, joined by “and”; a condition that tells them apart may be missing. Equal values may be shown once. Entries after “also recorded” stand apart in the source; their conditions may differ.

Experiments:
CWR22Rv1 xenografts = assay: Antitumor efficacy in castration-resistant CWR22Rv1 xenograft model; assay type: in vivo, male NOD SCID mice; settings: 5 days/week, 16 days
Description: Following the in vitro studies and determination of the PK parameters, we then investigated the relative efficacy. Gal and the NGGAs in vivo using difficult-to-treat castration-resistant CWR22Rv1 xenografts. Given the enhanced IP and PO PK parameters of VNPP414 and VNPP433-3β over Gal, we decided to use lower doses of the new analogs compared to the previous Gal doses (200 mg/kg, IP/PO). Gal (200 mg/kg) served as positive control, while ENZ (25 mg/kg) administered PO was used as negative control. Male NOD SCID mice bearing CWR22Rv1 tumors were treated with vehicle, ENZ, Gal, VNPP414, and VNPP433-3β for 16 days as described in the Methods and Materials Section. […] In contrast, Gal and the NGGAs caused statistically significant tumor growth inhibition (TGI). […] It is notable that VNPP433-3β (at 7.5- and 15-fold lower molar doses) and VNPP414 (at 4-fold lower molar dose) are more efficacious than Gal. In general, no host toxicities were observed, as monitored by changes in animal body weight (Figure 7C).
Figure 7 Effects of Gal, NGGAs and ENZ in an in vivo castration-resistant prostate cancer model. (A) Mice bearing CWR22Rv1 xenografts (5 mice per group) were treated with vehicle, Gal (100 mg/kg/twice daily), VNPP414 (60 mg/kg, once daily), VNPP433-3β (15 or 30 mg/kg, once daily) and ENZ (25 mg.kg, once daily) 5 days per week for 16 days. Tumor volumes were measured twice a week and the tumors were collected. Tumor growth inhibition (TGI) values are indicated at the right of each growth curve, and the error bars are the SEM. Results are represented as means ± SEM. ^# p = ns (not significant vs. vehicle), ^$ p < 0.0272 vs. vehicle, * p < 0.0035 vs. vehicle, ** p < 0.0025 vs. vehicle and *** p < 0.0008 vs. vehicle. (B) Photographed tumors from each group. (C) Mean body weights of mice determined during the study. (D) Western blot analyses of tumor samples from each experimental group at day 16. […] It is left out because vehicle is a control, not a substance.
Male NOD SCID mice 5–6 weeks of age were obtained from University of Maryland School of Medicine Veterinary Resources (Baltimore, MD, USA. Mice were housed under complete aseptic conditions, fed autoclaved pellets and sterile water ad libitum. Following a week of acclimatization, approximately 5 × 10^6 CWR22Rv1 cells were inoculated one flank f mice. Tumor-bearing mice (tumor volume around ~100 mm^3) were randomized into 6 groups (5 mice in each group; compounds formulated in vehicle) and treated as follows: (i) vehicle control (40% β-cyclodextrin in saline, PO.), (ii) ENZ (25 mg/kg, PO, once daily), (iii) Gal (100mg/kg, PO, twice daily), (iv) VNPP414 (60 mg/kg, PO, once daily), (v) VNPP433-3β (15 mg/kg, PO, once daily), and (vi) VNPP433-3β (30 mg/kg, PO, once daily) for 5 days/week. Tumors were measured twice weekly with calipers and tumor volume was calculated by the formula: length × width^2 × 0.5 (mm^3). Animals were also weighed weekly and monitored for general health status and signs of possible toxicity due to treatments. Mice were sacrificed after the indicated periods of treatment and tumors excised. Tumors were divided and either flash frozen in liquid nitrogen or placed in 10% buffered formalin for western blot analysis.

[1] = tested on: CWR-R1, CWR-R1 (10E), CWR-R1-MTX20nM cells; assay: Colony formation (clonogenicity) assay; assay type: cell-based, human; settings: parental CWR-R1 and drug-resistant counterparts, 14 days
From the text: (A) Comparative GI50 values of Gal, NGGAs, and enzalutamide (ENZ) in drug-naïve-/-resistant prostate cancer cells. (B) Gal and NGGAs induce G1 cell cycle arrest in LNCaP cells. (C) VNPP414 and VNPP433-3β deplete the cell cycle regulator, cyclin D1, and upregulate p21; “+” indicates specific treatments. (D) Gal cause dose-dependent depletion of cyclin D1. (E) Unlike ENZ, Gal and VNPP433-3β inhibit colony formation of drug-naïve/-resistant cells in vitro. 1000 cells/well (CWR-R1, CWR-R1 (10E), CWR-R1-MTX20nM), seeded in 6-well plates were treated with indicated concentrations of compounds for a period of 14 days. Media containing compounds were replaced every 3 days. Colonies were stained with 0.05% crystal violet. (F) Quantification of colony formation units (CFU) in drug-naive/resistant cells. Colony assays were repeated three times and colonies counted in four quadrants of the wells. Results are represented as averages with S.E.M. (* p < 0.05, ** p < 0.001). Note: the numbers in parentheses in Figure 2B,C,E are concentrations of the agents in µM.
0.1 × 10^3 cells per well were seeded in 6-well plates and allowed to attach overnight (16 h), cells were treated with compounds in regular media (RPMI with 10% FBS) at the indicated concentrations and replaced every 3rd day for 14 days or until visible colonies could be counted. Colonies were washed and stained with 0.05% crystal violet for 30 min. Colonies were scanned and quantified (colonies counted in four quadrants of each well) with ImageJ colony counter. Results are represented as the mean of triplicates.

PC-3 cells = assay: Wound-healing cell migration assay; assay type: cell-based, human; settings: PC-3, wound healing, 12 h

C[C@]12CC[C@H](O)CC1=CC[C@@H]1[C@@H]2CC[C@]2(C)C(n3cnc4ccccc43)=CC[C@@H]12 [Galeterone]
tumor growth inhibition (TGI) (CWR22Rv1 xenografts; 200 mg/kg (100 mg/kg PO twice daily), listed as Gal): 47% and 46.5% | inhibition of colony formation [1]: markedly inhibited clonogenic ability

C[C@]12CC[C@H](n3ccnc3)CC1=CCC1C2CC[C@]2(C)C(n3cnc4ccccc43)=CCC12 (stereo partly drawn) [VNPP433-3β]
tumor growth inhibition (TGI) (CWR22Rv1 xenografts; 15 mg/kg PO once daily): 60.5% | tumor growth inhibition (TGI) (CWR22Rv1 xenografts; 30 mg/kg PO once daily): 84% and 83.7% | inhibition of cell migration (PC-3 cells): significant inhibition of PC-3 cells migration | inhibition of colony formation [1]: significantly more potent than Gal; also recorded: markedly inhibited clonogenic ability

C[C@]12CC[C@H](OCc3ccncc3)CC1=CCC1C2CC[C@]2(C)C(n3cnc4ccccc43)=CCC12 (some centres unmarked) [VNPP414]
tumor growth inhibition (TGI) (CWR22Rv1 xenografts; 60 mg/kg PO once daily): 62.8% | inhibition of cell migration (PC-3 cells): significant inhibition of PC-3 cells migration
